Biological target: T1, human Endothelial Differentiation Gene 1 (EDG1) (Homo sapiens, UniProt P21453)
T1 construct: TEV protease site; Gal4-VP16 transcription factor; expressed in transfected cells; host or cells: EDG1-bla/U2OS (Tango GPCR-bla U2OS parental cell line)
Assay: S1P1 Tango assay - 384 well format
Assay type: cell-based
Settings: EDG1-bla/U2OS cells, agonist
Procedure: S1P1 Tango assay—384 Well Format
Recombinant EDG1-bla/U2OS cells (contain the human Endothelial Differentiation Gene 1 (EDG1) linked to a TEV protease site and a Gal4-VP16 transcription factor stably integrated into the Tango GPCR-bla U2OS parental cell line) were harvested from growth medium and passaged into assay medium (Invitrogen Freestyle Expression Medium). The cells were starved for 24 hours at 37° C., 5% CO2, harvested and resuspended in assay medium at a density of ˜200,000 cells/ml. All test compounds were dissolved in DMSO at a concentration of 10 mM and were prepared in 100% DMSO to provide 10 point dose response curves. Test compounds prepared by Bravo (Velocity11) were added to wells in columns 2-11 and 13-22; DMSO was added to wells in columns 12 and 23 as unstimulated controls and assay medium was added to wells in columns 1 and 24 as cell-free controls. An S1P1 agonist was added to wells in row 2, columns 2-11 as stimulated controls and test compounds were added to wells in row 2, columns 13-22 and rows 3-15, columns 2-11/13-22 (row 1 and 16 were empty and not used). Compounds in solution were added to the assay plate (Greiner 781090) using an Echo (Labcyte) dose-response program (50 nl/well). The unstimulated and cell-free controls were loaded with 50 nl/well pure DMSO to ensure that the DMSO concentration was constant across the plate for all assays.
50 μl of the cell suspension was added to each well in columns 2-23 of the plate (˜10,000 cells per well). 50 μl of assay medium was added to each well in the cell-free controls (columns 1 and 24). The cells were incubated overnight at 37° C./5% CO2.
10 μl of 6× substrate mixture (LiveBLAzer™-FRET B/G substrate (CCF4-AM) Cat #K1096 from Invitrogen, Inc.) was added to each well using Bravo and the plates incubated at room temperature for 2 h in the dark. The plate was finally read on EnVision using one excitation channel (409 nm) and two emission channels (460 nm and 530 nm).
The blue/green emission ratio (460 nm/530 nm) was calculated for each well, by dividing the background-subtracted Blue emission values by the background-subtracted Green emission values. The dose response curve is based on sigmoidal dose-response model. All ratio data was normalized based upon the maximum emission ratio of positive control and minimum emission ratio of negative control (DMSO) on each plate. The intrinsic activity (IA) of each compound would be the normalized percentage of its maximum response after curve fitting.

T1 sequence (P21453 whole entry, the tested form may be a part): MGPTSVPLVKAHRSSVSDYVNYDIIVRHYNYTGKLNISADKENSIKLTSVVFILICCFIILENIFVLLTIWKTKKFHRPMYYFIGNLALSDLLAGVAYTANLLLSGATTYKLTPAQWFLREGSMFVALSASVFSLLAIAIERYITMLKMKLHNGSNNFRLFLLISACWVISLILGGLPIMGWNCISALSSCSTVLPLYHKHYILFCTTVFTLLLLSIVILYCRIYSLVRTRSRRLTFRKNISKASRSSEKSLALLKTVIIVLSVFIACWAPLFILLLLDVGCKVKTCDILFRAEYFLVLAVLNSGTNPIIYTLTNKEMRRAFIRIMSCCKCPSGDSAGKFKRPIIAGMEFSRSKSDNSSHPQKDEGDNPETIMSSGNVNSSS

In the case of `CC(C)Oc1ccc(-c2nc(-c3cccc(CCC(=O)O)c3C(F)(F)F)no2)cc1C#N` [Example 24, 3-[3-(5-{3-cyano-4-[(1-methylethyl)oxy]phenyl}-1,2,4-oxadiazol-3-yl)-2-(trifluoromethyl)phenyl]propanoic acid], the EC50 is reported as no more than 10 nM.
Molecule `CC(C)Oc1ccc(-c2nc(-c3ccnc(CCC(=O)O)c3)no2)cc1C#N` [Example 20, 3-[4-(5-{3-cyano-4-[(1-methylethyl)oxy]phenyl}-1,2,4-oxadiazol-3-yl)-2-pyridinyl]propanoic acid] has an EC50 of no more than 1000 nM.
In the case of `CCc1c(CCC(=O)O)cccc1-c1noc(-c2ccc(OC(C)C)c(Cl)c2)n1` [Example 29, 3-[3-(5-{3-chloro-4-[(1-methylethyl)oxy]phenyl}-1,2,4-oxadiazol-3-yl)-2-ethylphenyl]propanoic acid], the EC50 is reported as no more than 1 nM.
Work on `CC(C)Oc1ccc(-c2nc(-c3cccc(CCCC(=O)O)c3C(F)(F)F)no2)cc1C#N` [Example 25, 4-[3-(5-{3-cyano-4-[(1-methylethyl)oxy]phenyl}-1,2,4-oxadiazol-3-yl)-2-(trifluoromethyl)phenyl]butanoic acid] yielded an EC50 of no more than 100 nM.
`CC(C)Oc1ncc(-c2nc(-c3cccc(CCC(=O)O)c3Cl)no2)cc1Cl` [Example 8, 3-[2-chloro-3-(5-{5-chloro-6-[(1-methylethyl)oxy]-3-pyridinyl}-1,2,4-oxadiazol-3-yl)phenyl]propanoic acid] gave an EC50 of no more than 10 nM.
Work on `CCc1c(CCN(C)CC(=O)O)cccc1-c1cnc(-c2ccc(OC(C)C)c(Cl)c2)s1` [Example 56, N-{2-[3-(2-{3-chloro-4-[(1-methylethyl)oxy]phenyl}-1,3-thiazol-5-yl)-2-ethylphenyl]ethyl}-N-methylglycine] yielded an EC50 of no more than 10 nM.
Molecule `CC(C)Oc1ccc(-c2nc(-c3cccc(CCCC(=O)O)c3Cl)no2)cc1C#N` [Example 11, 4-[2-chloro-3-(5-{3-cyano-4-[(1-methylethyl)oxy]phenyl}-1,2,4-oxadiazol-3-yl)phenyl]butanoic acid] has an EC50 of no more than 1 nM.
`CCc1c(OCC(=O)O)cccc1-c1noc(-c2ccc(OC(C)C)c(C#N)c2)n1` [Example 40, {[3-(5-{3-cyano-4-[(1-methylethyl)oxy]phenyl}-1,2,4-oxadiazol-3-yl)-2-ethylphenyl]oxy}acetic acid] gave an EC50 of no more than 10 nM.
With `CC(C)Oc1ccc(-c2nc(-c3ccc(F)c(CCC(=O)O)c3)no2)cc1C#N` [Example 22, 3-[5-(5-{3-cyano-4-[(1-methylethyl)oxy]phenyl}-1,2,4-oxadiazol-3-yl)-2-fluorophenyl]propanoic acid] the EC50 was no more than 1000 nM.
`COc1c(CCC(=O)O)cc(F)cc1-c1noc(-c2ccc(OC(C)C)c(C#N)c2)n1` [Example 30, 3-[3-(5-{3-cyano-4-[(1-methylethyl)oxy]phenyl}-1,2,4-oxadiazol-3-yl)-5-fluoro-2-(methyloxy)phenyl]propanoic acid] showed an EC50 of no more than 1 nM.
Work on `COc1c(CCCC(=O)O)cc(F)cc1-c1cnc(-c2ccc(OC(C)C)c(C#N)c2)s1` [Example 51, 4-[3-(2-{3-cyano-4-[(1-methylethyl)oxy]phenyl}-1,3-thiazol-5-yl)-5-fluoro-2-(methyloxy)phenyl]butanoic acid] yielded an EC50 of no more than 10 nM.
`CCc1c(CN(C)CCC(=O)O)cccc1-c1cnc(-c2ccc(OC(C)C)c(C#N)c2)s1` [Example 57, N-{[3-(2-{3-cyano-4-[(1-methylethyl)oxy]phenyl}-1,3-thiazol-5-yl)-2-ethylphenyl]methyl}-N-methyl-β-alanine] gave an EC50 of no more than 100 nM.
Work on `CCCc1c(CCCC(=O)O)cccc1-c1noc(-c2ccc(OC(C)C)c(Cl)c2)n1` [Example 36, 4-[3-(5-{3-chloro-4-[(1-methylethyl)oxy]phenyl}-1,2,4-oxadiazol-3-yl)-2-propylphenyl]butanoic acid] yielded an EC50 of no more than 10 nM.
Work on `CCc1c(CCN(C)CC(=O)O)cccc1-c1nsc(-c2ccc(OC(C)C)c(Cl)c2)n1` [Example 49, N-{2-[3-(5-{3-chloro-4-[(1-methylethyl)oxy]phenyl}-1,2,4-thiadiazol-3-yl)-2-ethylphenyl]ethyl}-N-methylglycine] yielded an EC50 of no more than 1 nM.
`COc1c(CCCC(=O)O)cccc1-c1noc(-c2ccc(OC(C)C)c(Cl)c2)n1` [Example 17, 4-[3-(5-{3-chloro-4-[(1-methylethyl)oxy]phenyl}-1,2,4-oxadiazol-3-yl)-2-(methyloxy)phenyl]butanoic acid] gave an EC50 of no more than 1 nM.
`COc1c(CCC(=O)O)cc(F)cc1-c1noc(-c2ccc(OC(C)C)c(Cl)c2)n1` [Example 34, 3-[3-(5-{3-chloro-4-[(1-methylethyl)oxy]phenyl}-1,2,4-oxadiazol-3-yl)-5-fluoro-2-(methyloxy)phenyl]propanoic acid] showed an EC50 of no more than 10 nM.
`CCc1c(OCCCC(=O)O)cccc1-c1noc(-c2ccc(OC(C)C)c(Cl)c2)n1` [Example 39, 4-{[3-(5-{3-chloro-4-[(1-methylethyl)oxy]phenyl}-1,2,4-oxadiazol-3-yl)-2-ethylphenyl]oxy}butanoic acid] gave an EC50 of no more than 1 nM.
With `CC(C)Oc1ccc(-c2nc(-c3cccc(CCCCCC(=O)O)c3Cl)no2)cc1C#N` [Example 12, 6-[2-chloro-3-(5-{3-cyano-4-[(1-methylethyl)oxy]phenyl}-1,2,4-oxadiazol-3-yl)phenyl]hexanoic acid] the EC50 was no more than 1 nM.
`CCc1c(-c2cnc(-c3ccc(OC(C)C)c(C#N)c3)s2)ccnc1CCCC(=O)O` [Example 58, 4-[4-(2-{3-cyano-4-[(1-methylethyl)oxy]phenyl}-1,3-thiazol-5-yl)-3-ethyl-2-pyridinyl]butanoic acid] was tested, and the EC50 was no more than 1000 nM.
`CCc1c(CN(C)CC(=O)O)cccc1-c1cnc(-c2ccc(OC(C)C)c(Cl)c2)s1` [Example 54, N-{[3-(2-{3-chloro-4-[(1-methylethyl)oxy]phenyl}-1,3-thiazol-5-yl)-2-ethylphenyl]methyl}-N-methylglycine] was tested, and the EC50 was no more than 1000 nM.
For `CCc1c(CCCC(=O)O)cccc1-c1noc(-c2ccc(OC(C)C)c(Cl)c2)n1` [Example 28, 4-[3-(5-{3-chloro-4-[(1-methylethyl)oxy]phenyl}-1,2,4-oxadiazol-3-yl)-2-ethylphenyl]butanoic acid], the EC50 was no more than 1 nM.
For `CCc1c(CCCC(=O)O)cccc1-c1cnc(-c2ccc(OC(C)C)c(C#N)c2)s1` [Example 50, 4-[3-(2-{3-cyano-4-[(1-methylethyl)oxy]phenyl}-1,3-thiazol-5-yl)-2-ethylphenyl]butanoic acid], the EC50 was no more than 10 nM.
`CCc1c(CN(C)CC(=O)O)cccc1-c1cnc(-c2ccc(OC(C)C)c(C#N)c2)s1` [Example 55, N-{[3-(2-{3-cyano-4-[(1-methylethyl)oxy]phenyl}-1,3-thiazol-5-yl)-2-ethylphenyl]methyl}-N-methylglycine] gave an EC50 of no more than 100 nM.
Work on `COc1c(CCCC(=O)O)cc(F)cc1-c1noc(-c2ccc(OC(C)C)c(Cl)c2)n1` [Example 35, 4-[3-(5-{3-chloro-4-[(1-methylethyl)oxy]phenyl}-1,2,4-oxadiazol-3-yl)-5-fluoro-2-(methyloxy)phenyl]butanoic acid] yielded an EC50 of no more than 1 nM.
Molecule `CCc1c(CCCC(=O)O)cccc1-c1noc(-c2ccc(OC(C)C)c(C#N)c2)n1` [Example 15, 4-[3-(5-{3-cyano-4-[(1-methylethyl)oxy]phenyl}-1,2,4-oxadiazol-3-yl)-2-ethylphenyl]butanoic acid] has an EC50 of no more than 1 nM.
For `COc1c(CCCC(=O)O)cc(F)cc1-c1noc(-c2cnc(OC(C)C)c(Cl)c2)n1` [Example 32, 4-[3-(5-{5-chloro-6-[(1-methylethyl)oxy]-3-pyridinyl}-1,2,4-oxadiazol-3-yl)-5-fluoro-2-(methyloxy)phenyl]butanoic acid], the EC50 was no more than 10 nM.
Molecule `CCc1c(CCCC(=O)O)cccc1-c1nnc(-c2ccc(OC(C)C)c(C#N)c2)o1` [Example 41, 4-[3-(5-{3-cyano-4-[(1-methylethyl)oxy]phenyl}-1,3,4-oxadiazol-2-yl)-2-ethylphenyl]butanoic acid] has an EC50 of no more than 10 nM.
`Cc1c(-c2noc(-c3ccc(OC(C)C)c(Cl)c3)n2)ccnc1CCCC(=O)O` [Example 7, 4-[4-(5-{3-chloro-4-[(1-methylethyl)oxy]phenyl}-1,2,4-oxadiazol-3-yl)-3-methyl-2-pyridinyl]butanoic acid] showed an EC50 of no more than 10 nM.
Work on `CCc1c(CNCCC(=O)O)cccc1-c1nsc(-c2ccc(OC(C)C)c(C#N)c2)n1` [Example 48, N-{[3-(5-{3-cyano-4-[(1-methylethyl)oxy]phenyl}-1,2,4-thiadiazol-3-yl)-2-ethylphenyl]methyl}-b-alanine] yielded an EC50 of no more than 10 nM.
With `CCc1c(CCCC(=O)O)cccc1-c1noc(-c2cnc(OC(C)C)c(Cl)c2)n1` [Example 14, 4-[3-(5-{5-chloro-6-[(1-methylethyl)oxy]-3-pyridinyl}-1,2,4-oxadiazol-3-yl)-2-ethylphenyl]butanoic acid] the EC50 was no more than 10 nM.

Reference: patent US20120101134A1, “5-MEMBERED HETEROARYL DERIVATIVES USED AS SPHINGOSINE 1-PHOSPHATE RECEPTOR AGONISTS” (GLAXO GROUP LIMITED, priority 2009, published 2012)
